The source made the active and inactive calls. The rule behind the calls is not given here.
Columns and labels:
Aorta [1] = test: Vasorelaxant activity in rat aorta assessed as relaxation of noradrenaline-induced vascular contraction at 10 uM incubated in presence of endothelium; format: functional, tissue-based
Aorta [2] = test: Vasorelaxant activity in rat aorta assessed as relaxation of noradrenaline-induced vascular contraction at 10 uM incubated in absence of endothelium; format: functional, tissue-based
Rattus norvegicus [3] = species on record: Rattus norvegicus; test: Antagonist activity at AT1 Ang II receptor in rat kidney assessed as reduction in angiotensin II induced renal perfusion pressure at 1 uM measured after […]; format: tissue-based; conditions: time […]
Rattus norvegicus [4] = species on record: Rattus norvegicus; test: Antagonist activity at AT1 Ang II receptor in noradrenaline sensitized rat aorta assessed as inhibition of angiotensin II induced contraction at 10 uM preincubated for 15 mins followed by angiotensin II addition; format: tissue-based; conditions: filed as antagonist
Aorta [5] = test: Vasorelaxant activity in rat aorta assessed as relaxation of noradrenaline-induced vascular contraction at 10 uM relative to control; format: functional; set-up: scale not given: the % may be the effect or the level left
[6] = target: Voltage-gated L-type calcium channel (Rattus norvegicus, UniProt P22002+Q02485+P27732); test: Inhibition of L-type calcium channel in rat aorta assessed as vasorelaxation of thoracic aorta in presence of endothelium; format: tissue-based
Rattus norvegicus [7] = test: Antihypertensive activity in spontaneously hypertensive rat assessed as reduction in systolic blood pressure at 20 mg/kg, ip measured for 6 hrs by tail-cuff method; format: functional, organism-based
Rattus norvegicus [8] = test: Antihypertensive activity in spontaneously hypertensive rat assessed as reduction in systolic blood pressure at 5 mg/kg, ip measured for 6 hrs by tail-cuff method; format: functional, organism-based

Row | Compound | Activity (Rattus norvegicus [4]) | Activity (Rattus norvegicus [3]) | further results
1 | O=C(O)c1ccc2[nH]c(SCc3ccc(-c4ccccc4-c4nnn[nH]4)cc3)nc2c1 | Active |  | Activity (Aorta [1]): Active; Activity (Aorta [2]): Active; Activity (Rattus norvegicus [3]; filed as antagonist): Active; Activity (Aorta [5]): 88.7%; IC50 [6]: 570 nM; Activity (Rattus norvegicus [7]): Active
2 | O=C(O)c1cccc2[nH]c(SCc3ccc(-c4ccccc4-c4nnn[nH]4)cc3)nc12 | Active | inactive | Activity (Aorta [1]): Active; Activity (Aorta [5]): 57.3%
3 | O=[N+]([O-])c1ccc2[nH]c(SCc3ccc(-c4ccccc4-c4nnn[nH]4)cc3)nc2c1 | Active | inactive | 
4 | O=C(Nc1nnn[nH]1)c1ccc(CSc2nc3c(C(=O)O)cccc3[nH]2)cc1 | Active | inactive | 
5 | O=C(Nc1nnn[nH]1)c1ccc(CSc2nc3cc([N+](=O)[O-])ccc3[nH]2)cc1 | Active | inactive | 
6 | CCCc1nc2c(C)cc(-c3nc4ccccc4n3C)cc2n1Cc1ccc(-c2ccccc2C(=O)O)cc1 | Active |  | Activity (Rattus norvegicus [3]; filed as antagonist): Active; Activity (Rattus norvegicus [8]): Active
7 | Cc1ccc2[nH]c(SCc3ccc(C(=O)Nc4nnn[nH]4)cc3)nc2c1 | Active | inactive | 
8 | O=C(O)c1ccc2[nH]c(SCc3ccc(C(=O)Nc4nnn[nH]4)cc3)nc2c1 | Active | inactive | 
